Columns and labels:
Adenosine receptor A1 = biological target: T1, Adenosine receptor A1 (Homo sapiens, UniProt P30542)
T1 sequence (P30542 whole entry): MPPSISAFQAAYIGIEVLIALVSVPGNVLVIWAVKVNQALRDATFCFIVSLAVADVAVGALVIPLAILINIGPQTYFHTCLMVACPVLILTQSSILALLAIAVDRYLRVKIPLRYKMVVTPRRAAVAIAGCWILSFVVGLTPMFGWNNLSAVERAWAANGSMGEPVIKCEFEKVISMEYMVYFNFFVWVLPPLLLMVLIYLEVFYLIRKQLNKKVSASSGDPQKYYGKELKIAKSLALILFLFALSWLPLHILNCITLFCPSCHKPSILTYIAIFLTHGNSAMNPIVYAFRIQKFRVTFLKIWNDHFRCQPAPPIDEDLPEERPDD

[1] = biological target: T2, Cholecystokinin receptor type A (Homo sapiens, UniProt P32238)
T2 sequence (P32238 whole entry): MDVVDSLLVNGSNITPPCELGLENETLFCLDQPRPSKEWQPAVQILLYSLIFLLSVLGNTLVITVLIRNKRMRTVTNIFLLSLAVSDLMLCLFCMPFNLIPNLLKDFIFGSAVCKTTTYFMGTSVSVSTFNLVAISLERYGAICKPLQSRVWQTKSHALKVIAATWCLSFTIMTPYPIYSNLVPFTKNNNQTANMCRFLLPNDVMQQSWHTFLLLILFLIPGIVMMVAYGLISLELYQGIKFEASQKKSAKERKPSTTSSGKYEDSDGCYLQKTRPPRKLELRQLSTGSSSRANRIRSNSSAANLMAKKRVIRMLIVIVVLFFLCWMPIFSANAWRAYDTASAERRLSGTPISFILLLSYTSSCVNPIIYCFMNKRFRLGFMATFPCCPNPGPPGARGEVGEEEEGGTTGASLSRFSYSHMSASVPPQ

Motilin receptor = Motilin receptor (Homo sapiens, UniProt O43193)
Sequence of Motilin receptor (O43193 whole entry): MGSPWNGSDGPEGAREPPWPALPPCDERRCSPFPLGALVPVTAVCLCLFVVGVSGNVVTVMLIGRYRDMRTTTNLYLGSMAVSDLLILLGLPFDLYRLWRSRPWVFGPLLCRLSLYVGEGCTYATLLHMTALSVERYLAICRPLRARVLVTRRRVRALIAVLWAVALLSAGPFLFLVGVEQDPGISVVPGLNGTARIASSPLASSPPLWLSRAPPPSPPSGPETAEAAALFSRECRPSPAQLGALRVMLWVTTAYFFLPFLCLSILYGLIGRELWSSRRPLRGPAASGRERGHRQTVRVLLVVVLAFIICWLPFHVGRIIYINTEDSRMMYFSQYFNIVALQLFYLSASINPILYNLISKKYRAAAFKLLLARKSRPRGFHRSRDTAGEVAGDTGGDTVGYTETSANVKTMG

[2] = biological target: cGMP-inhibited 3',5'-cyclic phosphodiesterase 3A (Homo sapiens, UniProt Q14432); format: functional
Sequence of cGMP-inhibited 3',5'-cyclic phosphodiesterase 3A (Q14432 whole entry): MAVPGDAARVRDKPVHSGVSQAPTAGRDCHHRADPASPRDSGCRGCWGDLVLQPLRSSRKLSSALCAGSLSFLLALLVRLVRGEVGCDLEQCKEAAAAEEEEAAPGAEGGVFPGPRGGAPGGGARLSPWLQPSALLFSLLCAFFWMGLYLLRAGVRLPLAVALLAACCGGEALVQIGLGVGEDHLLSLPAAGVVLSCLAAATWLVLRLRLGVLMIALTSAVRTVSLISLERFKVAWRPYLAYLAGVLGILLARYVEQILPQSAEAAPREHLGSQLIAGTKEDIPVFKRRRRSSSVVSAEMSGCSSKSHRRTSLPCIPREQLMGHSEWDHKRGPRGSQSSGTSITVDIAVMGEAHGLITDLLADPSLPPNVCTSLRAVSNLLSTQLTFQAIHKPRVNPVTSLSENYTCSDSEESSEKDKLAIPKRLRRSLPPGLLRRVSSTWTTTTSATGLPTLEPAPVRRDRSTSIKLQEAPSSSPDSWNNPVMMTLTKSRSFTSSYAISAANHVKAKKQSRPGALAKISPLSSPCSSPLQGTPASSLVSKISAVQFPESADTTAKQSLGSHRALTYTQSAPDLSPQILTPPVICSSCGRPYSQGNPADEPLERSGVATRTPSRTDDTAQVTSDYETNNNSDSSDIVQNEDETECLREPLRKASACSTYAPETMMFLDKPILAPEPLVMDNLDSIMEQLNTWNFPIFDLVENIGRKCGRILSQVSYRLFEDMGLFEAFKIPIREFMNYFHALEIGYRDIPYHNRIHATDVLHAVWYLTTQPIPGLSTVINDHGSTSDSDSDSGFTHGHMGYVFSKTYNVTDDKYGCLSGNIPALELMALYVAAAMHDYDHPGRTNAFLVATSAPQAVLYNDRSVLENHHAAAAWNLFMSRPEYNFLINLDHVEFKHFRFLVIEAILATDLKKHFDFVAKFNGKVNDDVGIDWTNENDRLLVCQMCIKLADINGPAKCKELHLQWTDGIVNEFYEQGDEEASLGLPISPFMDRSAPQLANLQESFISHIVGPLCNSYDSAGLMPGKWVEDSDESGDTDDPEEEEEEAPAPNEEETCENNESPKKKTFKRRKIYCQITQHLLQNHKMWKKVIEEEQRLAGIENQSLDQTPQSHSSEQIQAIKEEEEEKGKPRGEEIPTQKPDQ

[3] = biological target: 5-hydroxytryptamine receptor 2B (Homo sapiens, UniProt P41595); format: functional, cell-based
Sequence of 5-hydroxytryptamine receptor 2B (P41595 whole entry): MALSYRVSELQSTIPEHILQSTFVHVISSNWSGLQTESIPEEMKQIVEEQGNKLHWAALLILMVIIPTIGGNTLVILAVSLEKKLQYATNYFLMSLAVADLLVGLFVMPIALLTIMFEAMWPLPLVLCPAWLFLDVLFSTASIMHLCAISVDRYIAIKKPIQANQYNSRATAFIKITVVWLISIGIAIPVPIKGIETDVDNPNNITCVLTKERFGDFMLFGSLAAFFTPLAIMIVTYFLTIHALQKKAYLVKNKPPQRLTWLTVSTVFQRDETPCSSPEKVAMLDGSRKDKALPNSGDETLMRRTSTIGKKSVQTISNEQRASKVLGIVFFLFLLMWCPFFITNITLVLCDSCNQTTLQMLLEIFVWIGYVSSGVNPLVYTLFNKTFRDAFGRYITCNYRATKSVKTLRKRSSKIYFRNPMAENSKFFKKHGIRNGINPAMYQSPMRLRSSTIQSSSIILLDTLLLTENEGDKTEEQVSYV

[4] = biological target: T3, Alpha-2C adrenergic receptor (Homo sapiens, UniProt P18825); format: functional
T3 sequence (P18825 whole entry): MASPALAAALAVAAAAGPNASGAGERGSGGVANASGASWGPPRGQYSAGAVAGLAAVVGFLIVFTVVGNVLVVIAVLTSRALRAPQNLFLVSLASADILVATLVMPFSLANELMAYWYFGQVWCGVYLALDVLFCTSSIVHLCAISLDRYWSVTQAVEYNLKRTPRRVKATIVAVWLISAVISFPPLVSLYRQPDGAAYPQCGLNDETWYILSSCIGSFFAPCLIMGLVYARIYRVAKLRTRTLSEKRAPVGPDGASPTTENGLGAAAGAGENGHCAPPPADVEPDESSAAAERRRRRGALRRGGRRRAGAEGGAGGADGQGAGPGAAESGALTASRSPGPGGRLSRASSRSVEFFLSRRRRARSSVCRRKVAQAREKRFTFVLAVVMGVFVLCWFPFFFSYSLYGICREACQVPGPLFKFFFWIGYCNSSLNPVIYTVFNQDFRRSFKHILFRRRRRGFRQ

[5] = biological target: T4, Alpha-2A adrenergic receptor (Homo sapiens, UniProt P08913); format: functional, cell-based
T4 sequence (P08913 whole entry): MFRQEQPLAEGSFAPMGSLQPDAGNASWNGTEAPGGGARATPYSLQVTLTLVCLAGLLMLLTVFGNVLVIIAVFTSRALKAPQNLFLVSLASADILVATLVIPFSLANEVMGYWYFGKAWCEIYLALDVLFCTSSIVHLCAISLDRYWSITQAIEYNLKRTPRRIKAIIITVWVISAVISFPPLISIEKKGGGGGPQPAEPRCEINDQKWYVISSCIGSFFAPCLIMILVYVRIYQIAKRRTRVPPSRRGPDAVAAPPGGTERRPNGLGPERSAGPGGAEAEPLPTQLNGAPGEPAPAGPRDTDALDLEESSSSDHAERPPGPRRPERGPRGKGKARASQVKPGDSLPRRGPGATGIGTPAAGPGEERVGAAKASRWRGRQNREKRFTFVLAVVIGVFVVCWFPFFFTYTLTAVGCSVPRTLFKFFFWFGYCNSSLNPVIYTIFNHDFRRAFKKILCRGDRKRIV

[6] = biological target: T4, Alpha-2A adrenergic receptor; format: functional, cell-based; remark: listed apart in the source
D(1A) dopamine receptor = D(1A) dopamine receptor (Homo sapiens, UniProt P21728); format: functional, cell-based
Sequence of D(1A) dopamine receptor (P21728 whole entry): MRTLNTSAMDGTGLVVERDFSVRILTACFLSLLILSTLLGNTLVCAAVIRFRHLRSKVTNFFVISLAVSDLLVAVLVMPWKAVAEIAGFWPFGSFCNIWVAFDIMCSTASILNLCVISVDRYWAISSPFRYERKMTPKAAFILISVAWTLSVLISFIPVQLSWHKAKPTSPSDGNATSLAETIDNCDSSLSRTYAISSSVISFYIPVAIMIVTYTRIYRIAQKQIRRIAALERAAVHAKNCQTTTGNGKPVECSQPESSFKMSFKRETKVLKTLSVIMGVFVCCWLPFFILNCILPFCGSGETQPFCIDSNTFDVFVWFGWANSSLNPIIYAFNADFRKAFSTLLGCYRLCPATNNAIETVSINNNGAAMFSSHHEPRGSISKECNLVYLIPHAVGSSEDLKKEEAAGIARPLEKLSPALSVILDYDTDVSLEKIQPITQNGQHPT

[7] = biological target: T5, Alpha-2B adrenergic receptor (Homo sapiens, UniProt P18089)
T5 sequence (P18089 whole entry): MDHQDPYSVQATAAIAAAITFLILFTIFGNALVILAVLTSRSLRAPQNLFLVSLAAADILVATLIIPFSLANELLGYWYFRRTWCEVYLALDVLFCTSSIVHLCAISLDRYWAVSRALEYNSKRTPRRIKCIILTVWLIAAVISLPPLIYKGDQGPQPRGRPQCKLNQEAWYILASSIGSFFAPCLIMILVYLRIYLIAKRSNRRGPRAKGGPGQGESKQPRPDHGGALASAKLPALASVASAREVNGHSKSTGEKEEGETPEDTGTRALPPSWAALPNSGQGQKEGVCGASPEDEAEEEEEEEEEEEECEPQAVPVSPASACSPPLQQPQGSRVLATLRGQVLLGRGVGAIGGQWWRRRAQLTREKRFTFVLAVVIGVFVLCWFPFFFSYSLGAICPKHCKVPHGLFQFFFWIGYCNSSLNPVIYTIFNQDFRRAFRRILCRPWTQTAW

Histamine H2 receptor = Histamine H2 receptor (Homo sapiens, UniProt P25021); format: functional, cell-based
Sequence of Histamine H2 receptor (P25021 whole entry): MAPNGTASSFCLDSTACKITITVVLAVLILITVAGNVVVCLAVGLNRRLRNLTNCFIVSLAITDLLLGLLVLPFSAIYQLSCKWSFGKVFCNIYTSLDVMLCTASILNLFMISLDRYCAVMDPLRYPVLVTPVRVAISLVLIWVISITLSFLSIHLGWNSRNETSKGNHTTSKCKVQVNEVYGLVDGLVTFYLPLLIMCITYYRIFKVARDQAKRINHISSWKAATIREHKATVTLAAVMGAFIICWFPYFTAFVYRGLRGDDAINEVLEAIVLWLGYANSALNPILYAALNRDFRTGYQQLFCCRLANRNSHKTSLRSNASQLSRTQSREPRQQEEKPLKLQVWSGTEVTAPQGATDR

Cannabinoid receptor 1 = Cannabinoid receptor 1 (Homo sapiens, UniProt P21554); format: functional, cell-based
Sequence of Cannabinoid receptor 1 (P21554 whole entry): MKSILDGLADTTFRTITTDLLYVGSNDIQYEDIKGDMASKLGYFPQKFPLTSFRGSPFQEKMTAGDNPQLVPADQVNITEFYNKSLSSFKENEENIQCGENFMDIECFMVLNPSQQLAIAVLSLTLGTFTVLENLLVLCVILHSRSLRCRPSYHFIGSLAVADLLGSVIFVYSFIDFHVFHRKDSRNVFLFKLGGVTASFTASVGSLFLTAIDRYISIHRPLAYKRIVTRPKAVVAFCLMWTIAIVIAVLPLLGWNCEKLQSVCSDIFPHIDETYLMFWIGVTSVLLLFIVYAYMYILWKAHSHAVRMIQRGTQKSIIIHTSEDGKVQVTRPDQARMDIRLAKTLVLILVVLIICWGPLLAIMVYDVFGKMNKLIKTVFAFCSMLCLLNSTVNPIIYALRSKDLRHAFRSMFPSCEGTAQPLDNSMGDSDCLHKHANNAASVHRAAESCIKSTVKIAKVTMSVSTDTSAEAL
Note: assay procedure not described here.

Compound | AC50 (Adenosine receptor A1) [µM] | AC50 [1] [µM] | AC50 (Motilin receptor) [µM] | AC50 [2] [µM] | AC50 [3] [µM] | AC50 [4] [µM] | AC50 [5] [µM] | AC50 [6] [µM] | AC50 (D(1A) dopamine receptor) [µM] | AC50 [7] [µM] | AC50 (Histamine H2 receptor) [µM] | AC50 (Cannabinoid receptor 1) [µM]
C=CCCCCCCCCC(=O)O [UNDECYLENIC ACID] | > 30 | – | – | – | – | – | – | – | – | – | – | –
O=C(Oc1ccc2c(c1)CCCN2C(=O)C(Cl)Cl)c1ccco1 [QUINFAMIDE] | 29.4 | – | – | – | – | – | – | – | – | – | – | –
CCC(CC)(CC(=O)Nc1cccc(/C=C/c2nc(C3CCC3)cs2)c1)C(=O)O | > 30 | > 30 | > 30 | – | – | – | – | – | – | – | – | –
O=[N+]([O-])O[C@@H]1CO[C@H]2[C@@H]1OC[C@@H]2O [ISOSORBIDE MONONITRATE] | > 30 | > 30 | > 10 | > 30 | > 10 | > 10 | > 10 | > 10 | > 10 | > 10 | > 10 | –
O=[N+]([O-])c1cn2c(n1)OC[C@@H](OCc1ccc(OC(F)(F)F)cc1)C2 [PRETOMANID] | – | > 30 | > 10 | > 10 | – | > 10 | – | – | – | > 10 | – | –
Cc1oc(=O)oc1CN1CCN(c2cc3c(cc2F)c(=O)c(C(=O)O)c2n3C(C)S2)CC1 (centres undefined) [PRULIFLOXACIN] | > 30 | – | – | > 30 | > 30 | > 30 | > 30 | > 30 | > 30 | > 30 | > 30 | > 30
CC[C@H]1CN2CCc3cc(OC)c(OC)cc3[C@@H]2C[C@@H]1C[C@H]1NCCc2cc(OC)c(OC)cc21 [EMETINE] | > 30 | > 30 | > 30 | > 30 | > 30 | 0.23 | 1.2 | > 30 | > 30 | – | > 30 | > 30
CC(=O)c1ccc2c(c1)N(CCCN(C)C)c1ccccc1S2 [ACEPROMAZINE] | – | – | – | – | – | – | – | – | > 30 | – | – | –
C=CCN1C[C@H](C(=O)N(CCCN(C)C)C(=O)NCC)C[C@@H]2c3cccc4[nH]cc(c34)C[C@H]21 [CABERGOLINE] | – | > 10 | > 10 | > 30 | 0.189 | 0.3 | – | – | 0.0367 | – | 4.23 | > 30
CN(C)CCC=C1c2ccccc2C=Cc2ccccc21 [CYCLOBENZAPRINE] | – | > 30 | > 10 | > 30 | > 10 | 3.9 | > 10 | > 10 | > 10 | > 10 | > 10 | > 30
Clc1cc(Cl)c(OCC#CI)cc1Cl [HALOPROGIN] | 15.4 | – | – | – | – | – | – | – | – | – | – | –
CC(C)(C)C(=O)OCOC(=O)[C@@H]1N2C(=O)[C@@H](NC(=O)[C@H](N)c3ccccc3)[C@H]2SC1(C)C [PIVAMPICILLIN] | > 30 | – | – | – | – | – | – | – | – | – | – | –
CCOc1ccccc1OCC1CNCCO1 (centres undefined) [VILOXAZINE] | – | > 30 | > 10 | > 30 | > 10 | > 10 | > 10 | > 10 | > 10 | > 10 | > 10 | > 30
COc1ccc(C(=O)Nc2ccccc2CCC2CCCCN2C)cc1 (centres undefined) [ENCAINIDE] | – | > 30 | > 10 | > 30 | > 10 | > 10 | > 10 | > 10 | > 10 | > 10 | > 10 | > 30
CN(C)CCc1c[nH]c2ccc(C[C@H]3COC(=O)N3)cc12 [ZOLMITRIPTAN] | – | > 30 | > 30 | > 30 | > 30 | > 30 | > 30 | > 30 | > 30 | > 30 | > 30 | > 30
CN(C)CC/C=C1\c2ccccc2CSc2ccccc21 [DOTHIEPIN] | – | > 30 | > 30 | > 30 | > 30 | 9.8 | 29 | > 30 | > 30 | 1.3 | > 30 | > 30
CC[C@@H](C(N)=O)N1CCCC1=O | – | > 30 | > 30 | > 30 | > 30 | > 30 | > 30 | > 30 | > 30 | > 30 | > 30 | > 30
Nc1ccncc1N [AMIFAMPRIDINE] | > 30 | – | – | – | – | – | – | – | – | – | – | –
CCOc1ccc(Cc2cc([C@@H]3O[C@H](CO)[C@@H](O)[C@H](O)[C@H]3O)ccc2Cl)cc1 [DAPAGLIFLOZIN] | – | > 30 | > 10 | > 30 | – | > 10 | – | – | – | > 10 | – | –
CCCCS(=O)(=O)N[C@@H](Cc1ccc(OCCCCC2CCNCC2)cc1)C(=O)O [TIROFIBAN] | > 30 | – | – | – | – | – | – | – | – | – | – | –
COc1cc2nc(N3CCN(C(=O)c4ccco4)CC3)nc(N)c2cc1OC [PRAZOSIN] | > 30 | > 30 | > 10 | > 30 | > 10 | – | – | – | > 10 | – | – | > 30
CC(=O)OCC1=C(C(=O)O)N2C(=O)[C@@H](NC(=O)[C@H](N)c3ccccc3)[C@H]2SC1 [CEPHALOGLYCIN] | > 30 | – | – | – | – | – | – | – | – | – | – | –
CCCC1O[C@@H]2C[C@H]3[C@@H]4CCC5=CC(=O)C=C[C@]5(C)[C@H]4[C@@H](O)C[C@]3(C)[C@]2(C(=O)CO)O1 (some centres undefined) [BUDESONIDE] | – | > 10 | > 10 | > 30 | > 10 | > 10 | > 10 | > 10 | > 10 | – | > 10 | –
CCCCCNC(=N)N/N=C/c1c[nH]c2ccc(OC)cc12 [TEGASEROD] | > 30 | > 30 | 16.3 | > 30 | > 30 | 0.771 | 5.65 | > 30 | 0.34 | 3.37 | > 30 | –

— ChEMBL document CHEMBL5291721, “A preclinical secondary pharmacology resource illuminates target-adverse drug reaction associations of marketed drugs” (Nat Commun, 2023)
